{"source": "patent US9962453B2", "about": "“Immunogenic compound” (ALTIMMUNE UK LIMITED, priority 2013, dated 2018)", "experiment": "Particle size measurement (dynamic light scattering) and visual solubility in aqueous solutions; on particle size, HIST/NaCl: unit not given here; on particle size, HIST: unit not given here; on particle size, NaCl: unit not given here; on particle size, PBS: unit not given here; on particle size, Water: unit not given here", "conditions": "for particle size, HIST: 2 mg net mass/ml in 28 mM L-Histidine buffer, pH 5.9 to 6.4; for particle size, HIST/NaCl: 2 mg net mass/ml in 0.9% sodium chloride in 28 mM L-histidine, pH 5.9 to 6.3; for particle size, NaCl: 2 mg net mass/ml in 0.9% sodium chloride, pH 3.3 to 4.2; for particle size, PBS: 2 mg net mass/ml in 1× PBS, pH 6.9 to 7.5; for particle size, Water: 2 mg net mass/ml in water, pH 3.1 to 4.1, 20 °C", "note": "Marks after values point to notes of the source that are not given here.", "data": [{"substance": "Ac-LRLLAAHLALHAALLRLL-NH2 [Peptide 10, Ac-LRLLAAHLALHAALLRLL-NH2]", "values": [{"measurement": "particle size, HIST", "value": "INS."}, {"measurement": "particle size, HIST/NaCl", "value": "INS."}, {"measurement": "particle size, NaCl", "value": "INS."}, {"measurement": "particle size, PBS", "value": "INS."}, {"measurement": "particle size, Water", "value": "INS."}]}, {"substance": "Ac-LRLLHAALALAAHLLRLL-NH2 [Peptide 8, Ac-LRLLHAALALAAHLLRLL-NH2]", "values": [{"measurement": "particle size, HIST", "value": "INS."}, {"measurement": "particle size, HIST/NaCl", "value": "INS."}, {"measurement": "particle size, NaCl", "value": "INS."}, {"measurement": "particle size, PBS", "value": "INS."}, {"measurement": "particle size, Water", "value": "INS."}]}, {"substance": "Ac-LRLLHALLALLAHLLRLL-NH2 [Peptide 6, Ac-LRLLHALLALLAHLLRLL-NH2]", "values": [{"measurement": "particle size, HIST", "value": "INS."}, {"measurement": "particle size, HIST/NaCl", "value": "INS."}, {"measurement": "particle size, NaCl", "value": "INS."}, {"measurement": "particle size, PBS", "value": "INS."}, {"measurement": "particle size, Water", "value": "INS."}]}, {"substance": "Ac-LRLLHAPLALPAHLLRLL-NH2 [Peptide 7, Ac-LRLLHAPLALPAHLLRLL-NH2]", "values": [{"measurement": "particle size, HIST", "value": "0*"}, {"measurement": "particle size, HIST/NaCl", "value": "INS."}, {"measurement": "particle size, NaCl", "value": "0*"}, {"measurement": "particle size, PBS", "value": "INS."}, {"measurement": "particle size, Water", "value": "0*"}]}, {"substance": "Ac-LRLLPAHLALHAPLLRLL-NH2 [Peptide 9, Ac-LRLLPAHLALHAPLLRLL-NH2]", "values": [{"measurement": "particle size, HIST", "value": "0*"}, {"measurement": "particle size, HIST/NaCl", "value": "INS."}, {"measurement": "particle size, NaCl", "value": "6.02*"}, {"measurement": "particle size, PBS", "value": "INS."}, {"measurement": "particle size, Water", "value": "0*"}]}, {"substance": "Ac-RRLKKAKLKLKAKKLRRL-NH2 [Peptide 19, Ac-RRLKKAKLKLKAKKLRRL-NH2]", "values": [{"measurement": "particle size, HIST", "value": "0*"}, {"measurement": "particle size, HIST/NaCl", "value": "0*"}, {"measurement": "particle size, NaCl", "value": "0*"}, {"measurement": "particle size, PBS", "value": "0*"}, {"measurement": "particle size, Water", "value": "0*"}]}, {"substance": "Ac-RRLLAAHLALHAALLRRL-NH2 [Peptide 15, Ac-RRLLAAHLALHAALLRRL-NH2]", "values": [{"measurement": "particle size, HIST", "value": "0*"}, {"measurement": "particle size, HIST/NaCl", "value": "2.66*"}, {"measurement": "particle size, NaCl", "value": "0*"}, {"measurement": "particle size, PBS", "value": "360.7*"}, {"measurement": "particle size, Water", "value": "0*"}]}, {"substance": "Ac-RRLLAAPLALPAALLRRL-NH2 [Peptide 5, Ac-RRLLAAPLALPAALLRRL-NH2]", "values": [{"measurement": "particle size, HIST", "value": "0*"}, {"measurement": "particle size, HIST/NaCl", "value": "3.3*"}, {"measurement": "particle size, NaCl", "value": "1.6*"}, {"measurement": "particle size, PBS", "value": "1.35*"}, {"measurement": "particle size, Water", "value": "0*"}]}, {"substance": "Ac-RRLLHAALALAAHLLRRL-NH2 [Peptide 13, Ac-RRLLHAALALAAHLLRRL-NH2]", "values": [{"measurement": "particle size, HIST", "value": "0*"}, {"measurement": "particle size, HIST/NaCl", "value": "2.7*"}, {"measurement": "particle size, NaCl", "value": "2.2*"}, {"measurement": "particle size, PBS", "value": "2.3*"}, {"measurement": "particle size, Water", "value": "0*"}]}, {"substance": "Ac-RRLLHAHLALHAHLLRRL-NH2 [Peptide 16, Ac-RRLLHAHLALHAHLLRRL-NH2]", "values": [{"measurement": "particle size, HIST", "value": "0*"}, {"measurement": "particle size, HIST/NaCl", "value": "1.83*"}, {"measurement": "particle size, NaCl", "value": "0*"}, {"measurement": "particle size, PBS", "value": "1.4*"}, {"measurement": "particle size, Water", "value": "0*"}, {"measurement": "behaviour in the particle size assay", "setting": "water, HIST, NaCl versus HIST/NaCl, PBS", "value": "apparent solubility in water, 28 mM L-Histidine and 0.9% NaCl with the formation of larger particles or insoluble aggregates in 28 mM L-Histidine/NaCl or PBS"}]}, {"substance": "Ac-RRLLHAKLALKAHLLRRL-NH2 [Peptide 17, Ac-RRLLHAKLALKAHLLRRL-NH2]", "values": [{"measurement": "particle size, HIST", "value": "0*"}, {"measurement": "particle size, HIST/NaCl", "value": "0*"}, {"measurement": "particle size, NaCl", "value": "0*"}, {"measurement": "particle size, PBS", "value": "0*"}, {"measurement": "particle size, Water", "value": "0*"}]}, {"substance": "Ac-RRLLHALLALLAHLLRRL-NH2 [Peptide 11, Ac-RRLLHALLALLAHLLRRL-NH2]", "values": [{"measurement": "particle size, HIST", "value": "0*"}, {"measurement": "particle size, HIST/NaCl", "value": "INS."}, {"measurement": "particle size, NaCl", "value": "0*"}, {"measurement": "particle size, PBS", "value": "INS."}, {"measurement": "particle size, Water", "value": "0*"}]}, {"substance": "Ac-RRLLHAPLALPAHLLRRL-NH2 [Peptide 12, Ac-RRLLHAPLALPAHLLRRL-NH2]", "values": [{"measurement": "particle size, HIST", "value": "0*"}, {"measurement": "particle size, HIST/NaCl", "value": "0*"}, {"measurement": "particle size, NaCl", "value": "0*"}, {"measurement": "particle size, PBS", "value": "1.35*"}, {"measurement": "particle size, Water", "value": "0*"}]}, {"substance": "Ac-RRLLKAKLALKAKLLRRL-NH2 [Peptide 18, Ac-RRLLKAKLALKAKLLRRL-NH2]", "values": [{"measurement": "particle size, HIST", "value": "0*"}, {"measurement": "particle size, HIST/NaCl", "value": "0*"}, {"measurement": "particle size, NaCl", "value": "0*"}, {"measurement": "particle size, PBS", "value": "0*"}, {"measurement": "particle size, Water", "value": "0*"}]}]}
